Source: patent publication US20100267561A1, “HERBICIDAL PYRIDAZINONE DERIVATIVES” (priority 2007, published 2010)

How the values were obtained:
Type in all cases: in vivo
[1] = test system: morningglory (Ipomoea coccinea); assay: Test A pre-/postemergence plant response
In short: (§1)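 Greenhouse pot test: loam–sand soil; pre- and postemergence sprays applied same day; post plants 2–10 cm, 1–2 leaves. Readout ~10 d, visual % injury vs untreated (0 = none, 100 = complete control).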

[2] = test system: velvetleaf (Abutilon theophrasti); assay: Test A pre-/postemergence plant response
In short: as §1

[3] = test system: pigweed (Amaranthus retroflexus); assay: Test A pre-/postemergence plant response
In short: as §1

[4] = test system: wheat (Triticum aestivum); assay: Test A pre-/postemergence plant response
In short: as §1

[5] = test system: giant foxtail (Setaria faberi); assay: Test A pre-/postemergence plant response
In short: as §1

[6] = test system: barnyardgrass (Echinochloa crus-galli); assay: Test A pre-/postemergence plant response
In short: as §1

corn (Zea mays) = assay: Test A pre-/postemergence plant response
In short: as §1

[7] = test system: large crabgrass (Digitaria sanguinalis); assay: Test A pre-/postemergence plant response
In short: as §1

[8] = test system: ducksalad (Heteranthera limosa); assay: Test B flooded paddy test plant response
In short: (§2)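 Compounds were added directly to paddy water over 2-leaf-stage plants in pots flooded 3 cm above soil, water depth maintained. Visual injury scored against controls after 13 to 15 days in greenhouse, 0 (none) to 100 (complete control); dash indicates no result.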

rice (Oryza sativa) = assay: Test B flooded paddy test plant response
In short: as §2

[9] = test system: umbrella sedge (Cyperus difformis); assay: Test B flooded paddy test plant response
In short: as §2

[10] = test system: barnyardgrass (Echinochloa crus-galli); assay: Test B flooded paddy test plant response
In short: as §2

[11] = Postemergence, 125 g ai/ha, 0 to 100 scale, 0 no effect, 100 complete control
[12] = Postemergence, 500 g ai/ha, 0 to 100 scale, 0 no effect, 100 complete control
[13] = Preemergence, 500 g ai/ha, 0 to 100 scale (0 no effect, 100 complete control)
[14] = Preemergence, 125 g ai/ha, 0 to 100 scale (0 no effect, 100 complete control)
[15] = Flood (flooded paddy test), 62 g ai/ha, scale 0 to 100, 0 no effect, 100 complete control
[16] = Flood (flooded paddy test), 125 g ai/ha, scale 0 to 100, 0 no effect, 100 complete control
[17] = Flood (flooded paddy test), 250 g ai/ha, scale 0 to 100, 0 no effect, 100 complete control
[18] = Flood, 31 g ai/ha, scale 0 to 100

## Cn1ncc(O)c(-c2nn(-c3ccc(Cl)cc3)cc2Cl)c1=O [Compound 28]
[1]; [11]
  Plant response rating, Morningglory: 0
[1]; [12]
  Plant response rating, Morningglory: 30
[1]; [13]
  Plant response rating, Morningglory: 0
[2]; [11]
  Plant response rating, Velvetleaf: 0
[2]; [12]
  Plant response rating, Velvetleaf: 0
[2]; [14]
  Plant response rating, Velvetleaf: 0
[2]; [13]
  Plant response rating, Velvetleaf: 20
[3]; [11]
  Plant response rating, Pigweed: 0
[3]; [12]
  Plant response rating, Pigweed: 0
[3]; [14]
  Plant response rating, Pigweed: 0
[3]; [13]
  Plant response rating, Pigweed: 0
[4]; [11]
  Plant response rating, Wheat: 50
[4]; [12]
  Plant response rating, Wheat: 70
[4]; [14]
  Plant response rating, Wheat: 70
[4]; [13]
  Plant response rating, Wheat: 100
[5]; [11]
  Plant response rating, Foxtail, Giant: 90
[5]; [12]
  Plant response rating, Foxtail, Giant: 90
[5]; [14]
  Plant response rating, Foxtail, Giant: 100
[5]; [13]
  Plant response rating, Foxtail, Giant: 100
[6]; [11]
  Plant response rating, Barnyardgrass: 60
[6]; [12]
  Plant response rating, Barnyardgrass: 100
[6]; [14]
  Plant response rating, Barnyardgrass: 100
[6]; [13]
  Plant response rating, Barnyardgrass: 100
Corn (Zea mays); [11]
  Plant response rating, Corn: 40
Corn (Zea mays); [12]
  Plant response rating, Corn: 90
Corn (Zea mays); [14]
  Plant response rating, Corn: 80
Corn (Zea mays); [13]
  Plant response rating, Corn: 90
[7]; [11]
  Plant response rating, Crabgrass, Large: 80
[7]; [12]
  Plant response rating, Crabgrass, Large: 90
[7]; [14]
  Plant response rating, Crabgrass, Large: 90
[7]; [13]
  Plant response rating, Crabgrass, Large: 100
[8]; [15]
  Plant response rating, Ducksalad: 0
[8]; [16]
  Plant response rating, Ducksalad: 0
[8]; [17]
  Plant response rating, Ducksalad: 0
[8]; [18]
  Plant response rating, Ducksalad: 0
Rice (Oryza sativa); [15]
  Plant response rating, Rice: 0
Rice (Oryza sativa); [16]
  Plant response rating, Rice: 0
Rice (Oryza sativa); [17]
  Plant response rating, Rice: 60
Rice (Oryza sativa); [18]
  Plant response rating, Rice: 0
[9]; [15]
  Plant response rating, Sedge, Umbrella: 0
[9]; [16]
  Plant response rating, Sedge, Umbrella: 0
[9]; [17]
  Plant response rating, Sedge, Umbrella: 0
[9]; [18]
  Plant response rating, Sedge, Umbrella: 0
[10]; [15]
  Plant response rating, Barnyardgrass: 0
[10]; [16]
  Plant response rating, Barnyardgrass: 0
[10]; [17]
  Plant response rating, Barnyardgrass: 30
[10]; [18]
  Plant response rating, Barnyardgrass: 0
